Laboratory results taken from patent publication US8022268B2, “Transgenic animal model for alzheimer's disease” (The University of Zurich, priority 2007, dated 2011).

Columns and labels:
brain β-amyloid plaques = assay: Blood brain barrier penetration and binding to Aβ deposits after peripheral administration (double staining with 6E10 and anti-human IgG); assay type: in vivo; details: 24 month arcAβ mice, 3 mg/kg i.p. weekly for 2 months; 6E10 and anti-human IgG double staining
Protocol: ArcAβ mice were generated as described in the previous Examples on a hybrid background of C57B1/6 and DBA2. The test group was backcrossed once to C57B1/6. Mice were kept under standard housing conditions on a reversed 12 h:12 h light/dark cycle and had free access to food and water. The treatment groups were balanced for age and gender.
Recombinant human anti-Aβ antibody NI-101.10 was produced in stably transfected 293 HEK cells and purified using standard Protein A column purification. Control antibody Humira (Adalimumab, Abbott, Switzerland) was dissolved in medium conditioned by 293 HEK cells and purified as described.
(§1) 24 month old arcAβ mice were injected weekly i.p. with recombinant human NI-101.10 or Humira control antibody (3 mg/kg body weight) over a time period of 2 months (8 injections). The allocation of mice to the individual groups was: n=[…] and 4 wt for the NI-101.10 treatment groups; n=[…] and 6 wt for the control antibody treatment groups.
Mice were anesthetized (10 ul/g bw ketamin/xylaxine) and perfused transcardially with PBS. One brain hemisphere was dissected into cortex, hippocampus and cerebellum and immediately frozen on dry-ice for further biochemical analysis. The other hemisphere was fixed in 4% paraformaldehyde and embedded in paraffin. 5 μm sagittal sections were cut with a Leica RM 2135 microtome (Bannockburn, Ill.). […]

arcAβ mice = assay: fMRI vascular reactivity to acetazolamide (cerebral blood volume) after passive immunization; assay type: in vivo; details: transgenic (tg) arcAβ mice after 2 months antibody treatment
Protocol: as §1
ArcAβ mice and their wildtype littermates were measured before (n=3 tg and 3 wt) or after the antibody treatment (n=5 tg NI-101.10, 4 tg Humira, […], 6 wt Humira). Mice were anesthetized with Isofluran, intubated and artificially ventilated during the MR experiment. The mice were placed on a water-heated cradle and all agents were injected via cannula into the tail vein. Experiments were performed on a 4.7 Tesla Pharmascan 47/16 (Bruker BioSpin GmbH, Germany). Scan parameters of the RARE sequence (Hennig et al., Magn. Reson. Med. 3 (1986), 823-833) were set as followed: spatial resolution: 156×156×700 μm^3, temporal resolution: 40 s, repetition time: 2500 ms, echo time (eff. TE): 80.2 ms, field of view (FOV): 2×1.3 cm^2, RARE factor: 32, matrix dimension: 128×128, slice thickness: 0.7 mm, inter-slice distance: 1.2 mm, number of averages: 4, number of slices: 5. fMRI measurement comprised 3 phases: 8 baseline images (S pre) were acquired as reference for the determination of the relative cerebral blood volume (CBVrel) changes. […]

Adalimumab [Humira]
binding of human antibody to Aβ deposits in brain sections (brain β-amyloid plaques): No such binding | mean ACBV % (integrated, after acetazolamide 30 mg/kg) (arcAβ mice): 500%
